# Laboratory results published in patent US20140249172A1 (3B Pharmaceuticals, Inc., priority 2012, published 2014).
# “And” between values parts separate entries of the source, which are not always exact repeats. Equal entries are not always repeated. Structures can show the parent of a compound that is named as a salt.
# How the values were obtained:
# [1] = Blood levels of free naltrexone and free 6-beta-naltrexol following intranasal administration; type: in vivo, human; conditions: for Blood Level 6-beta-Naltrexol-free / Naltrexone-free blood level: individual patients 1-8
# [2] = Stability of Naltrexone HCl aqueous solution: potency/purity by USP <621> HPLC
# [3] = cited from earlier work
# [4] = cited from earlier work; remark: listed apart in the source
# [5] = 4.5 mg/day for 12 weeks; cited from earlier work
# [6] = oral, 0.4 mg or 1.0 mg; 90 patients; cited from earlier work
# [7] = in vivo, po; cited from earlier work
# [8] = 0.5 mg/day oral daily for 4 weeks; 42 IBS patients; cited from earlier work
# [9] = oral 0.002 mg/day with methadone; one patient; cited from earlier work
smiles,measurement,setting,value
"Oc1ccc2c3c1O[C@H]1[C@H](O)CC[C@@]4(O)[C@@H](C2)N(CC2CC2)CC[C@]314 [6-beta-Naltrexol, 6-beta-naltrexol]","Blood Level 6-beta-Naltrexol-free, Avg.","[1]; average of 8 subjects, 15 min",0.138 ng/mL
same,"Blood Level 6-beta-Naltrexol-free, Avg.","[1]; average of 8 subjects, 30 min",0.900 ng/mL
same,"Blood Level 6-beta-Naltrexol-free, Avg.","[1]; average of 8 subjects, 60 min",1.588 ng/mL
same,"Blood Level 6-beta-Naltrexol-free, Avg.","[1]; average of 8 subjects, 120 min",2.438 ng/mL
same,Blood Level 6-beta-Naltrexol-free,[1]; 15 min after intranasal 1 mL of Example 1 composition,0 ng/mL (7×) and 1.1 ng/mL
same,Blood Level 6-beta-Naltrexol-free,[1]; 30 min,0 ng/mL (3×) and 1 ng/mL (2×) and 1.5 ng/mL and 1.9 ng/mL and 1.8 ng/mL
same,Blood Level 6-beta-Naltrexol-free,[1]; 60 min,1.1 ng/mL and 1.9 ng/mL and 0 ng/mL (2×) and 1.2 ng/mL and 1.6 ng/mL and 2.9 ng/mL and 4 ng/mL
same,Blood Level 6-beta-Naltrexol-free,[1]; 120 min,2.1 ng/mL (2×) and 2.7 ng/mL and 2 ng/mL and 1.8 ng/mL and 1 ng/mL and 3.5 ng/mL and 4.3 ng/mL
"O=C1CC[C@@]2(O)[C@H]3Cc4ccc(O)c5c4[C@@]2(CCN3CC2CC2)[C@H]1O5 [Naltrexone HCl, Naltrexone hydrochloride]",Potency/Purity,"[2]; Stability Test A, 2.00 mg/mL in sterile water, room temperature, ambient light, day 5",99.89%
same,Potency/Purity,"[2]; Stability Test A, day 14",104.12%
same,Potency/Purity,"[2]; Stability Test A, day 31",95.94%
same,Potency/Purity,"[2]; Stability Test A, day 62",107.00%
same,Potency/Purity,"[2]; Stability Test A, day 90",107.09%
same,Potency/Purity,"[2]; Stability Test B, 2.00 mg/mL in sterile water, room temperature, ambient light, day 6",102.04%
same,Potency/Purity,"[2]; Stability Test B, day 15",102.11%
same,Potency/Purity,"[2]; Stability Test B, day 33",101.05%
same,Potency/Purity,"[2]; Stability Test B, day 61",98.49%
same,Potency/Purity,"[2]; Stability Test B, day 90",99.24%
same,Potency/Purity,"[2]; Stability Test B, day 121",98.70%
same,Potency/Purity,"[2]; Stability Test B, day 152",98.56%
same,Potency/Purity,"[2]; Stability Test B, day 180",100.44%
same,solubility in water,[3],about 100 mg/mL
"O=C1CC[C@@]2(O)[C@H]3Cc4ccc(O)c5c4[C@@]2(CCN3CC2CC2)[C@H]1O5 [Naltrexone, naltrexone]",oral bioavailability,"[4]; oral administration, significant first pass metabolism",up to 40%
same,time to peak plasma concentration,[4]; single oral dose,1 to 2 h
same,"CDAI scores, quality of life indicators, remission rates, inflammatory markers in serum",[5],Statistically significant improvements
same,analgesic effect compared with placebo,[6],significant analgesic effects
same,reduction of fibromyalgia symptoms over placebo,[7],greater than 30%
same,patients with improved global assessment,[8],76%
same,solubility in water (in words),[3]; in the form of a salt,freely soluble
same,pain relief,[9],improved pain relief
same,concentration at 15 min,"[1]; both sexes, human, in vivo, 2 mg, average of 8 subjects, 15 min after intranasal administration, read-out: Naltrexone-free blood level, Avg.",3.52 ng/mL
same,concentration at 30 min,"[1]; both sexes, human, in vivo, 2 mg, average of 8 subjects, 30 min, read-out: Naltrexone-free blood level, Avg.",3.66 ng/mL
same,concentration at 60 min,"[1]; both sexes, human, in vivo, 2 mg, average of 8 subjects, 60 min, read-out: Naltrexone-free blood level, Avg.",3.24 ng/mL
same,concentration at 120 min,"[1]; both sexes, human, in vivo, 2 mg, average of 8 subjects, 120 min, read-out: Naltrexone-free blood level, Avg.",1.94 ng/mL
same,Naltrexone-free blood level,[1]; 15 min after intranasal 1 mL of Example 1 composition (2 mg/mL),5.2 ng/mL and 1.4 ng/mL and 4.7 ng/mL and 4.6 ng/mL (2×) and 1.6 ng/mL and 2.1 ng/mL and 4 ng/mL
same,Naltrexone-free blood level,[1]; 30 min after intranasal 1 mL of Example 1 composition,5.1 ng/mL and 1.7 ng/mL and 4.7 ng/mL and 3.8 ng/mL and 2.3 ng/mL and 5.5 ng/mL and 2.8 ng/mL and 3.4 ng/mL
same,Naltrexone-free blood level,[1]; 60 min after intranasal 1 mL of Example 1 composition,4.6 ng/mL and 1.8 ng/mL (2×) and 4.5 ng/mL (2×) and 3.2 ng/mL and 2.6 ng/mL and 2.9 ng/mL
same,Naltrexone-free blood level,[1]; 120 min after intranasal 1 mL of Example 1 composition,2.8 ng/mL and 1.1 ng/mL and 2.9 ng/mL and 2.1 ng/mL (2×) and 1.3 ng/mL and 1.4 ng/mL and 1.8 ng/mL
